Patent US20240293579A1, “Composition Comprising Trim31 and Rhbdf2 for Treatment of NAFLD/NASH” (CHONGQING MEIPULAN TECHNOLOGY CO., LTD, priority 2021, published 2024)
Where a name gives a salt, the structure may show the parent alone.

These compounds were tested on TRIM31 mRNA (assay: TRIM31 mRNA expression by RT-qPCR in PA/OA-induced L02 cells). Conditions: 100 μmol/L compound; PA/OA-induced L02 cells; RT-qPCR.
Type: cell-based, human
Protocol: Palmitic acid/oleic acid (PA/OA) was used to induce the decrease of TRIM31 mRNA expression in human hepatocyte L02 cells. The cells were divided into control group and drug group. The drug group was treated with a concentration of 100 μmol/L compound, and the expression level of TRIM31 mRNA was detected by RT-qPCR. The expression level of TRIM31 mRNA in the drug group divided by that in the control group (Qdrug/Qctrl) was used to evaluate the ability of the compounds to promote TRIM31 expression. […]
For `Oc1cc(O)c2c(c1)O[C@H](c1cc(O)c(O)c(O)c1)[C@H](O)C2` [(−)-epigallocatechin], the “Qdrug/Qctrl (TRIM31 mRNA expression level, drug group divided by control group)” value was 2.71 fold.
For `Oc1ccc([C@H]2Oc3cc(O)cc(O)c3C[C@@H]2O)cc1` [Afzelechin], the “Qdrug/Qctrl (TRIM31 mRNA expression level, drug group divided by control group)” value was 3.12 fold.
`CC1(C)[C@@H](O[C@H]2O[C@H](C(=O)O)[C@@H](O)[C@H](O)[C@H]2O[C@@H]2O[C@H](C(=O)O)[C@@H](O)[C@H](O)[C@H]2O)CC[C@]2(C)[C@H]3C(=O)C=C4[C@@H]5C[C@@](C)(C(=O)O)CC[C@]5(C)CC[C@@]4(C)[C@]3(C)CC[C@@H]12` [Glycyrrhizinic acid] was tested, and the “Qdrug/Qctrl (TRIM31 mRNA expression level, drug group divided by control group)” value was 1.86 fold.
`COc1cc2c(cc1O)CC[n+]1cc3c(OC)c(OC)ccc3cc1-2` [Jateorhizine] was tested, and the “Qdrug/Qctrl (TRIM31 mRNA expression level, drug group divided by control group)” value was 1.72 fold.
For `O=C1C[C@@H](c2ccc(O)cc2)Oc2cc(O)ccc21` [Liquiritigenin], the “Qdrug/Qctrl (TRIM31 mRNA expression level, drug group divided by control group)” value was 2.79 fold.
In the case of `CC(C)=CCc1c(-c2ccc(O)cc2O)oc2c(CC=C(C)C)c(O)cc(O)c2c1=O` [Mulberrin], the “Qdrug/Qctrl (TRIM31 mRNA expression level, drug group divided by control group)” value is reported as 3.74 fold.

Same assay, conditions: Homo sapiens, L02, read-out: Qdrug/Qctrl (TRIM31 mRNA expression level, drug group divided by control group)
With `O=c1cc(-c2ccc(O)cc2)oc2cc(O)cc(O)c12` [Apigenin] the fold induction at 100 µM was 3.21.
With `O=c1cc(-c2ccccc2)oc2cc(O)c(O)c(O)c12` [Baicalein] the fold induction at 100 µM was 3.53.
With `COc1ccc2cc3[n+](cc2c1OC)CCc1cc2c(cc1-3)OCO2` [Berberine, reference compound] the fold induction at 100 µM was 1.32.
`COC(=O)c1cc(OC)c2c(c1-c1c(C(=O)OC)cc(OC)c3c1OCO3)OCO2` [Bifendate, reference compound] showed a fold induction at 100 µM of 1.76.
Work on `CN1Cc2c(ccc3c2OCO3)[C@@H]2[C@H]1c1cc3c(cc1C[C@@H]2O)OCO3` [Chelidonine] yielded a fold induction at 100 µM of 1.53.
For `O=C(/C=C/c1ccc(O)c(O)c1)O[C@@H]1C[C@](O)(C(=O)O)C[C@@H](O)[C@H]1O` [Chlorogenic acid], the fold induction at 100 µM was 2.42.
For `O=c1cc(-c2ccccc2)oc2cc(O)cc(O)c12` [Chrysin], the fold induction at 100 µM was 2.89.
Compound `COc1cc2c(c(OC)c1OC)-c1ccc(OC)c(=O)cc1[C@@H](NC(C)=O)CC2` [Colchicine, reference compound] has a fold induction at 100 µM of 1.32.
`COc1cc(/C=C/C(=O)CC(=O)/C=C/c2ccc(O)c(OC)c2)ccc1O` [Curcumin] was tested, and the fold induction at 100 µM was 2.83.
With `Oc1cc(O)c2cc(O)c(-c3ccc(O)c(O)c3)[o+]c2c1` [Cyanidin] the fold induction at 100 µM was 2.97.
`C=C(CO)C(=O)O[C@H]1CC(=C)[C@@H]2C[C@H](O)C(=C)[C@@H]2[C@H]2OC(=O)C(=C)[C@@H]21` [Cynaropicrin] was tested, and the fold induction at 100 µM was 3.35.
With `O=c1c(-c2ccc(O)cc2)coc2cc(O)ccc12` [Daidzein] the fold induction at 100 µM was 2.66.
`O=C1c2c(O)cc(O)cc2O[C@H](c2ccc(O)c(O)c2)[C@H]1O` [Dihydroquercetin] was tested, and the fold induction at 100 µM was 3.32.
For `Oc1cc(O)c2c(c1)O[C@H](c1ccc(O)c(O)c1)[C@H](O)C2` [Epicatechin], the fold induction at 100 µM was 2.92.
`COc1cc(/C=C/C(=O)O)ccc1O` [Ferulic acid] was tested, and the fold induction at 100 µM was 2.51.
With `COc1ccc([C@@H]2CC(=O)c3c(O)cc(O)cc3O2)cc1O` [Hesperetin] the fold induction at 100 µM was 3.06.
In the case of `COc1cc(-c2oc3cc(O)cc(O)c3c(=O)c2O)ccc1O` [Isorhamnetin], the fold induction at 100 µM is reported as 2.77.
With `O=c1c(O)c(-c2ccc(O)cc2)oc2cc(O)cc(O)c12` [Kaempferol] the fold induction at 100 µM was 3.26.
With `COc1cc2nccc(Oc3ccc(NC(=O)NC4CC4)c(Cl)c3)c2cc1C(N)=O` [Lenvatinib, reference compound] the fold induction at 100 µM was 2.75.
For `COc1cc(C(=O)OCCCCNC(=N)N)cc(OC)c1O` [Leonurine], the fold induction at 100 µM was 1.51.
`CN(C)C(=N)N=C(N)N` [Metformin, reference compound] gave a fold induction at 100 µM of 2.45.
For `O=c1c(O)c(-c2cc(O)c(O)c(O)c2)oc2cc(O)cc(O)c12` [Myricetin], the fold induction at 100 µM was 3.25.
`O=C1C[C@@H](c2ccc(O)cc2)Oc2cc(O)cc(O)c21` [Naringenin] was tested, and the fold induction at 100 µM was 3.02.

Same assay, conditions: Homo sapiens; 100 μmol/L compound; PA/OA-induced L02 cells; RT-qPCR; read-out: Qdrug/Qctrl (TRIM31 mRNA expression level, drug group divided by control group)
`COc1cc2c(c3c1c(=O)c1ccccc1n3C)C=CC(C)(C)O2` [Acronycine] showed a fold induction at 100 µM of 1.43.
`C[S+](CC[C@H](N)C(=O)[O-])C[C@H]1O[C@@H](n2cnc3c(N)ncnc32)[C@H](O)[C@@H]1O` (some centres unmarked) [Ademetionine, reference compound] was tested, and the fold induction at 100 µM was 2.55.
With `O=c1cc(-c2ccc(O)cc2)oc2cc(O[C@@H]3O[C@H](CO)[C@@H](O)[C@H](O)[C@H]3O[C@@H]3OC[C@](O)(CO)[C@H]3O)cc(O)c12` [Apiin] the fold induction at 100 µM was 3.22.
`O=C(O)[C@H]1O[C@@H](Oc2cc3oc(-c4ccccc4)cc(=O)c3c(O)c2O)[C@H](O)[C@@H](O)[C@@H]1O` [Baicalin] gave a fold induction at 100 µM of 2.98.
Compound `COC(=O)c1cc(OC)c2c(c1-c1c(CO)cc(OC)c3c1OCO3)OCO2` [Bicyclol, reference compound] has a fold induction at 100 µM of 2.45.
`CC[C@@]1(O)C(=O)OCc2c1cc1n(c2=O)Cc2cc3ccccc3nc2-1` [Camptothecin] was tested, and the fold induction at 100 µM was 2.13.
In the case of `C[C@H](CCC(=O)O)[C@H]1CC[C@H]2[C@@H]3[C@H](O)C[C@@H]4C[C@H](O)CC[C@]4(C)[C@H]3CC[C@]12C` [Chenodeoxycholic acid, reference compound], the fold induction at 100 µM is reported as 2.54.
For `O=C(/C=C/c1ccc(O)c(O)c1)O[C@@H]1C[C@@](OC(=O)/C=C/c2ccc(O)c(O)c2)(C(=O)O)C[C@@H](O)[C@@H]1O` [Cynarin], the fold induction at 100 µM was 2.56.
With `Oc1cc(O)c2cc(O)c(-c3cc(O)c(O)c(O)c3)[o+]c2c1` [Delphinidin] the fold induction at 100 µM was 2.49.
Compound `COc1ccc(-c2cc(=O)c3c(O)cc(O)cc3o2)cc1O` [Diosmetin] has a fold induction at 100 µM of 3.41.
Compound `O=c1c(O)c(-c2ccccc2)oc2cc(O)cc(O)c12` [Galangin] has a fold induction at 100 µM of 2.81.
For `O=c1c(-c2ccc(O)cc2)coc2cc(O)cc(O)c12` [Genistein], the fold induction at 100 µM was 2.73.
With `CC1(C)[C@@H](O[C@H]2O[C@H](C(=O)O)[C@@H](O)[C@H](O)[C@H]2O[C@@H]2O[C@H](C(=O)O)[C@@H](O)[C@H](O)[C@H]2O)CC[C@]2(C)[C@H]3C(=O)C=C4[C@@H]5C[C@@](C)(C(=O)O)CC[C@]5(C)CC[C@@]4(C)[C@]3(C)CC[C@@H]12` [Glycyrrhizic Acid Monoammonium Salt] the fold induction at 100 µM was 1.72.
In the case of `COc1ccc(-c2oc3c(CC=C(C)C)c(O[C@@H]4O[C@H](CO)[C@@H](O)[C@H](O)[C@H]4O)cc(O)c3c(=O)c2O[C@@H]2O[C@@H](C)[C@H](O)[C@@H](O)[C@H]2O)cc1` [Icariin], the fold induction at 100 µM is reported as 3.33.
`O=c1c(O[C@@H]2O[C@@H](CO)[C@H](O)[C@H]2O)c(-c2ccc(O)cc2)oc2cc(O)cc(O)c12` [Juglanin] gave a fold induction at 100 µM of 2.95.
With `Nc1cccc2c1CN(C1CCC(=O)NC1=O)C2=O` (centres unmarked) [Lenalidomide, reference compound] the fold induction at 100 µM was 1.43.
`O=c1cc(-c2ccc(O)c(O)c2)oc2cc(O)cc(O)c12` [Luteolin] was tested, and the fold induction at 100 µM was 3.09.
`O[C@H]1[C@H]2c3cc4c(cc3CN3CCC(=C[C@@H]1O)[C@H]23)OCO4` [Lycorine] was tested, and the fold induction at 100 µM was 2.26.
`COc1ccc2c(c1O)-c1c(O)c(OC)cc3c1[C@H](C2)[N+](C)(C)CC3` [Magnoflorine] was tested, and the fold induction at 100 µM was 1.38.
Compound `O=c1c(O)c(-c2ccc(O)cc2O)oc2cc(O)cc(O)c12` [Morin] has a fold induction at 100 µM of 2.86.
For `O=C1CCC[C@@H]2[C@H]3CCC[N+]4([O-])CCC[C@@H](CN12)[C@@H]34` (some centres unmarked) [Oxymatrine], the fold induction at 100 µM was 1.15.
